# EPA's ToxValDB 9.5
# Where “and” joins values, the source holds several entries; their conditions need not be identical. Equal entries are not always repeated.
# Tests used:
# Oryctolagus sp. = conditions: for LD50: acute, dermal; for NOAEL: reproduction developmental, oral
# Rattus norvegicus = conditions: for LD50 / LC50: acute
# [1] = developmental, duration: 10 days, oral, gavage, Sprague-Dawley
# [2] = reproduction developmental, duration: 10 days, oral, gavage, F, Sprague-Dawley
# [3] = short-term, duration: 4 weeks, oral, diet, Sprague-Dawley
# [4] = reproduction developmental, oral, gavage, Sprague-Dawley
# [5] = subchronic, duration: 13 weeks, oral, gavage, Sprague-Dawley
# [6] = subchronic, duration: 90 days, oral, gavage, Sprague-Dawley
# [7] = subchronic, duration: 90 days, oral, diet, Wistar
# [8] = chronic, oral, diet, Sprague-Dawley
compound,measurement,setting,value
CC(C)CCCCCCCOP(=S)([S-])OCCCCCCCC(C)C.CC(C)CCCCCCCOP(=S)([S-])OCCCCCCCC(C)C.[Zn+2],LD50,Oryctolagus sp.; New Zealand,> 8000 mg/kg
CCCC[N+](CC)(CCCC)CCCCCC[N+](CC)(CCCC)CCCC.[OH-].[OH-],LD50,Oryctolagus sp.; New Zealand,22.4 mg/kg
same,LD50,"Rattus norvegicus; oral, gavage, Sprague-Dawley",350 mg/kg
"CC(C)C(C)(N)C#N (stereo unspecified) [2-Amino-2,3-dimethylbutanenitrile]",LD50,"Oryctolagus sp.; occlusive, New Zealand",23 mg/kg
same,LC50,"Rattus norvegicus; inhalation, Sprague-Dawley",422 mg/m3 and 335 mg/m3
same,LD50,"Rattus norvegicus; oral, gavage, Sprague-Dawley",83 mg/kg
same,NOAEL,"Rattus norvegicus; short-term, duration: 28 days, dermal, occlusive, Charles River (Sprague-Dawley derived)",3 mg/kg-day
CC(C#N)CCC#N (stereo unspecified) [2-Methylpentanedinitrile],LD50,Oryctolagus sp.; New Zealand,776 mg/kg
same,LD50,"Rattus norvegicus; oral, Sprague-Dawley",205 mg/kg and ≥ 174 mg/kg and ≤ 243 mg/kg
same,NOAEL,"Rattus norvegicus; short-term, duration: 4 weeks, inhalation, Crl:CD(SD) BR",25 mg/m3
CC(C)CC(C)Nc1ccc(Nc2ccccc2)cc1 (stereo unspecified) [6PPD],LD50,"Oryctolagus sp.; occlusive, New Zealand",> 7940 mg/kg
same,NOAEL,"Oryctolagus sp.; duration: 13 days, F, New Zealand",30 mg/kg-day
same,LD50,"Rattus norvegicus; oral, Sprague-Dawley",> 5000 mg/kg
same,LD50,"Rattus norvegicus; oral, gavage, Sprague-Dawley",3580 mg/kg
same,NOAEL,Rattus norvegicus; [1],> 250 mg/kg-day
same,NOAEL,"Rattus norvegicus; reproduction developmental, duration: 23 weeks, oral, diet, Sprague-Dawley, generation: F0",100 ppm
same,NOAEL,"Rattus norvegicus; reproduction developmental, duration: 23 weeks, oral, diet, Sprague-Dawley, generation: F1",1000 ppm
same,NOAEL,"Rattus norvegicus; reproduction developmental, duration: 23 weeks, oral, diet, Sprague-Dawley, generation: F2",1000 ppm
same,NOAEL,Rattus norvegicus; [2],50 mg/kg-day
same,NOAEL,"Rattus norvegicus; reproduction developmental, duration: 21 days, oral, gavage, Sprague-Dawley, generation: F0",> 1000 ppm
same,NOAEL,"Rattus norvegicus; reproduction developmental, duration: 21 days, oral, gavage, Sprague-Dawley, generation: F1",> 1000 ppm
same,LOAEL,"Rattus norvegicus; short-term, duration: 4 weeks, inhalation, particle, Sprague-Dawley",50 mg/m3
same,NOAEL,"Rattus norvegicus; subchronic, duration: 90 days, oral, diet, Sprague-Dawley",24 mg/kg-day
O=C(Cl)c1ccccc1 [Benzoyl chloride],LD50,Oryctolagus sp.,790 mg/kg
same,LD50,"Oryctolagus sp.; occlusive, New Zealand",> 2000 mg/kg
same,LC50,Rattus norvegicus; inhalation,1.87 µg/mL
same,LC50,"Rattus norvegicus; inhalation, Wistar",1.45 µg/mL and > 1.98 µg/mL and > 2.34 µg/mL
same,LD50,Rattus norvegicus; oral,2460 mg/kg and 1900 mg/kg
same,LD50,"Rattus norvegicus; oral, Spartan",2620 mg/kg
same,LD50,"Rattus norvegicus; oral, gavage, Wistar",2530 mg/kg
CCCCC(CC)COC(=O)c1c(Br)c(Br)c(Br)c(Br)c1C(=O)OCC(CC)CCCC (stereo unspecified) [Bis(2-ethylhexyl) tetrabromophthalate],LD50,Oryctolagus sp.; New Zealand,> 3090 mg/kg
same,LD50,"Rattus norvegicus; oral, gavage, Crl:CD(SD)",> 5000 mg/kg
same,LOAEL,Rattus norvegicus; [3],20000 ppm
same,NOAEL,Rattus norvegicus; [3],2000 ppm
O=S(=O)([O-])c1ccc(Nc2nc(Nc3ccc(/C=C/c4ccc(Nc5nc(Nc6ccc(S(=O)(=O)[O-])cc6)nc(N(CCO)CCO)n5)cc4S(=O)(=O)[O-])c(S(=O)(=O)[O-])c3)nc(N(CCO)CCO)n2)cc1.[Na+].[Na+].[Na+].[Na+] [C.I. Fluorescent Brightener 220],NOAEL,"Oryctolagus sp.; duration: 21 days, gavage, F, New Zealand",100 mg/kg-day
same,NOAEL,"Oryctolagus sp.; duration: 21 days, gavage, New Zealand, generation: F1",300 mg/kg-day and 800 mg/kg-day
same,LD50,"Rattus norvegicus; oral, gavage",> 15000 mg/kg
same,NOAEL,"Rattus norvegicus; chronic, duration: 104 weeks, oral, diet, F, Wistar",780 mg/kg-day
same,NOAEL,"Rattus norvegicus; chronic, duration: 104 weeks, oral, diet, M, Wistar",780 mg/kg-day
same,NOAEL,"Rattus norvegicus; reproduction developmental, duration: 9 months, oral, gavage, Sprague-Dawley, generation: F1",1000 mg/kg-day
same,NOAEL,"Rattus norvegicus; reproduction developmental, duration: 9 months, oral, gavage, Sprague-Dawley, generation: F2",1000 mg/kg-day
same,NOAEL,"Rattus norvegicus; reproduction developmental, duration: 13 days, oral, gavage, F, Sprague-Dawley",1000 mg/kg-day
same,NOAEL,"Rattus norvegicus; reproduction developmental, duration: 13 days, oral, gavage, Sprague-Dawley, generation: F1",1000 mg/kg-day
same,NOAEL,"Rattus norvegicus; reproduction developmental, oral, gavage, Sprague-Dawley, generation: F0",1000 mg/kg-day
same,NOAEL,"Rattus norvegicus; reproduction developmental, oral, gavage, Sprague-Dawley, generation: F1",1000 mg/kg-day
same,NOAEL,"Rattus norvegicus; subchronic, duration: 10 weeks, oral, gavage, F, Wistar",500 mg/kg-day
same,NOAEL,"Rattus norvegicus; subchronic, duration: 10 weeks, oral, gavage, M, Wistar",500 mg/kg-day
C=C1C2CCC(C2)C1(C)C (stereo unspecified) [Camphene],LD50,Oryctolagus sp.; New Zealand,> 2500 mg/kg
same,LD50,"Rattus norvegicus; oral, Wistar",> 5000 mg/kg
same,NOAEL,Rattus norvegicus; [1],1000 mg/kg-day
same,NOAEL,Rattus norvegicus; [2],250 mg/kg-day
same,NOAEL,"Rattus norvegicus; short-term, duration: 28 days, oral, gavage, F, Wistar",250 mg/kg-day
same,NOAEL,"Rattus norvegicus; short-term, duration: 28 days, oral, gavage, M, Wistar",62.5 mg/kg-day
same,LOAEL,"Rattus norvegicus; short-term, duration: 28 days, oral, gavage, Wistar",1000 mg/kg-day
OC1CCCCC1 [Cyclohexanol],LD50,Oryctolagus sp.; New Zealand,≥ 501 mg/kg and ≤ 794 mg/kg
same,LC50,"Rattus norvegicus; Inhalation, Sprague-Dawley",> 3.63 µg/mL
same,LD50,"Rattus norvegicus; oral, gavage, Carworth Wistar",2060 mg/kg
same,LD50,"Rattus norvegicus; oral, gavage, Sprague-Dawley",1550 mg/kg
same,NOAEL,"Rattus norvegicus; developmental, inhalation, Sprague-Dawley",614 mg/m3
same,NOAEL,"Rattus norvegicus; reproduction developmental, duration: 10 weeks, inhalation, Sprague-Dawley, generation: F0",614 mg/m3
same,NOAEL,"Rattus norvegicus; reproduction developmental, duration: 10 weeks, inhalation, Sprague-Dawley, generation: F1",614 mg/m3
same,NOAEL,"Rattus norvegicus; reproduction developmental, duration: 13 weeks, inhalation, Sprague-Dawley",614 mg/m3
"CCOP(=O)(CN(CCO)CCO)OCC [Diethyl (N,N-bis(2-hydroxyethyl)amino)methanephosphonate]",LD50,Oryctolagus sp.,> 2000 mg/kg
same,LD50,Oryctolagus sp.; Albino,> 2000 mg/kg
same,LD50,"Rattus norvegicus; oral, gavage, Sprague-Dawley",> 5000 mg/kg
same,LOAEL,Rattus norvegicus; [4],> 750 mg/kg-day
same,NOAEL,Rattus norvegicus; [4],750 mg/kg-day
same,LOAEL,Rattus norvegicus; [5],> 500 mg/kg-day
same,NOAEL,Rattus norvegicus; [5],500 mg/kg-day
CCCCCCCCCc1cc2ccccc2c(S(=O)(=O)O)c1CCCCCCCCC [Dinonylnaphthalenesulfonic acid],LD50,Oryctolagus sp.; New Zealand,> 2000 mg/kg
same,LC50,"Rattus norvegicus; Inhalation, Wistar",> 200 µg/mL
same,LD50,"Rattus norvegicus; oral, gavage, Sprague-Dawley",> 5000 mg/kg
O=C(OCC1CCC2OC2C1)C1CCC2OC2C1 (stereo unspecified) [ECC],LD50,"Oryctolagus sp.; occlusive, New Zealand",> 20 mg/kg
same,LD50,"Rattus norvegicus; oral, gavage, Sprague-Dawley",5000 mg/kg
same,NOAEL,"Rattus norvegicus; developmental, duration: 14 days, oral, gavage, Sprague-Dawley",125 mg/kg-day
same,NOAEL,"Rattus norvegicus; reproduction developmental, duration: 14 days, oral, gavage, F, Sprague-Dawley",25 mg/kg-day
same,NOAEL,"Rattus norvegicus; reproduction developmental, duration: 90 days, oral, gavage, Sprague-Dawley, generation: F0",≥ 500 mg/kg-day
same,LOAEL,"Rattus norvegicus; short-term, duration: 14 days, oral, gavage, Sprague-Dawley",100 mg/kg-day
same,LOAEL,Rattus norvegicus; [6],50 mg/kg-day
same,NOAEL,Rattus norvegicus; [6],5 mg/kg-day
CCCCCCC=O [Heptanal],LD50,Oryctolagus sp.,> 5000 mg/kg
same,LC50,"Rattus norvegicus; Inhalation, Sprague-Dawley",> 4.7 µg/mL
same,LD50,"Rattus norvegicus; oral, gavage",> 5000 mg/kg
same,NOAEL,"Rattus norvegicus; reproduction developmental, oral, gavage, F, Wistar",2050 mg/kg-day
same,LOAEL,Rattus norvegicus; [7],150 mg/kg-day
same,NOAEL,Rattus norvegicus; [7],37 mg/kg-day
"CCCCCCCCCCCCN(C)C [N,N-Dimethyldodecan-1-amine]",LD50,"Oryctolagus sp.; occlusive, New Zealand",5000 mg/kg
same,LD50,"Rattus norvegicus; oral, gavage, Wistar",1220 mg/kg and 790 mg/kg
O=C1c2ccccc2C(=O)N1SC1CCCCC1 [N-(Cyclohexylthio)phthalimide],LD50,"Oryctolagus sp.; occlusive, New Zealand",> 5010 mg/kg
same,LOAEL,Rattus norvegicus; [8],150 mg/kg-day
same,NOAEL,Rattus norvegicus; [8],50 mg/kg-day
CCNc1ccccc1 [N-Ethylaniline],LD50,Oryctolagus sp.; New Zealand,> 2000 mg/kg
same,LD50,Rattus norvegicus; dermal,1920 mg/kg
same,LC50,"Rattus norvegicus; inhalation, Sprague-Dawley",≥ 1.13 µg/mL and ≤ 1.48 µg/mL
same,LD50,Rattus norvegicus; oral,300 mg/kg
same,LD50,"Rattus norvegicus; oral, gavage, Sprague-Dawley",≥ 332 mg/kg and ≤ 402 mg/kg
